Experimental data published in US11440884B2, “Compounds, salts thereof and methods for treatment of diseases” (ACADIA PHARMACEUTICALS INC., priority 2017, dated 2022).
pKi: −log10 of the molar value. Like-named read-outs stand apart in the source and are kept apart here.

Target: 5-HT2A receptor (Homo sapiens (Human), UniProt P28223)
Assay: Receptor Selection and Amplification (R-SAT) functional antagonist assay;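 note: Read-out is β-galactosidase marker gene activity with ONPG substrate, measured after five days of growth in 96-well plates holding the test compound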
[1] = R-SAT, transfected NIH3T3 cells, guidance: high affinity pKi≥8.4, moderate affinity pKi≥7.7

Chain of 5-HT2A receptor (P28223 whole entry): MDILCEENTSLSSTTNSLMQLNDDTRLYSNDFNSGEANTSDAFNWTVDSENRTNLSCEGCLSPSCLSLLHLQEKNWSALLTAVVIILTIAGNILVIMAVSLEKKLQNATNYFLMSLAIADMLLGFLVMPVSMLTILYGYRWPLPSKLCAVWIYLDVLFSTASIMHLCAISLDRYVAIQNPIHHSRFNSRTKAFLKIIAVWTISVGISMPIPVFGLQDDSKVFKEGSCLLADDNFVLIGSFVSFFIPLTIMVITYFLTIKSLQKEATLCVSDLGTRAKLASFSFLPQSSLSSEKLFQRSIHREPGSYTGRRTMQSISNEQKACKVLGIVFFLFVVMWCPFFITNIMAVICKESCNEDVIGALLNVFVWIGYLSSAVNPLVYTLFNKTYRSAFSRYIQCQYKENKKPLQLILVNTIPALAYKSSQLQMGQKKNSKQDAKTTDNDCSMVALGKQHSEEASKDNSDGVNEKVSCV
Protocol: Receptor Selection and Amplification (R-SAT) Assays. […] For large-scale transfections, cells were transfected for 12-16 h, then trypsinized and frozen in DMSO. Frozen cells were later thawed, plated at 10,000-40,000 cells per well of a 96 well plate that contained a compound according to Formula (I). […] With both methods, cells were then grown in a humidified atmosphere with 5% ambient CO2 for five days. Media was then removed from the plates and marker gene activity was measured by the addition of the b-galactosidase substrate o-nitrophenyl b-D-galactopyranoside (ONPG, in PBS with 5% NP-40). […] All data were analyzed using the computer program XLFit (IDBSm).

| SMILES | 5-HT2a pKi [1] | further results |
| --- | --- | --- |
| COc1ccc(CN(C(=O)OCc2ccc(OC(C)C)cc2)C2CCN(C)CC2)c(F)c1 [Compound 41, [4-(propan-2-yloxy)phenyl]methyl N-[(2-fluoro-4-methoxyphenyl)-methyl]-N-(1-methylpiperidin-4-yl)carbamate] | – | pKi: 8.60 |
| COc1ccc(CN(C(=O)OCc2ccc(OC(C)C)cc2)C2CCN(C)CC2)c(Cl)c1.O=C(O)C(F)(F)F [Compound 57, [4-(propan-2-yloxy)phenyl]methyl N-[(2-chloro-4-methoxy-phenyl)methyl]-N-(1-methylpiperidin-4-yl)carbamate; trifluoroacetic acid] | – | 5-HT2a pKi: 7.8 |
| CC(C)COc1ccc(CC(=O)N(Cc2ccc(F)cc2)C2CCN(C)CC2)cc1F.O=C(O)C(F)(F)F [Compound 21, 2-[3-fluoro-4-(2-methylpropoxy)phenyl]-N-[(4-fluorophenyl)methyl]-N-(1-methylpiperidin-4-yl)acetamide; trifluoroacetic acid] | 8.6 | – |
| Cc1cc(F)ccc1CN(C(=O)OCc1ccc(OC(C)C)cc1)C1CCN(C)CC1.O=C(O)C(F)(F)F [Compound 56, [4-(propan-2-yloxy)phenyl]methyl N-[(4-fluoro-2-methylphenyl)-methyl]-N-(1-methylpiperidin-4-yl)carbamate; trifluoroacetic acid] | – | 5-HT2a pKi: 7.8 |
| CN1CCC(N(Cc2ccc(F)cc2F)C(=O)OCc2ccc(OCC(C)(C)O)cc2)CC1 [Compound 29, 4-(2-hydroxy-2-methylpropoxy)benzyl (2,4-difluorobenzyl)(1-methylpiperidin-4-yl)carbamate] | 10.2 | – |
| COc1ccc(COC(=O)N(Cc2ccc(F)cc2F)C2CCN(C)CC2)cc1 [Compound 15, (4-methoxyphenyl)methyl N-[(2,4-difluorophenyl)methyl]-N-(1-methylpiperidin-4-yl)carbamate] | 9.3 | – |
| CC(C)COc1ccc(CC(=O)N(Cc2ccc(F)cc2OC(F)(F)F)C2CCN(C)CC2)cc1.O=C(O)C(F)(F)F [Compound 51, N-{[4-fluoro-2-(trifluoromethoxy)phenyl]methyl}-N-(1-methyl-piperidin-4-yl)-2-[4-(2-methylpropoxy)phenyl]acetamide; trifluoroacetic acid] | 6.7 | – |
| COc1ccc(CN(C(=O)Cc2ccc(OCC(C)C)cc2)C2CCN(C)CC2)c(F)c1 [Compound 47, N-[(2-fluoro-4-methoxyphenyl)methyl]-N-(1-methylpiperidin-4-yl)-2-[4-(2-methylpropoxy)phenyl]acetamide] | 8.1 | – |
| CC(C)COc1ccc(COC(=O)N(Cc2ccc(F)cc2)[C@H]2CCN(C)C[C@H]2F)cc1 (racemic) [6a/6b, [4-(2-methylpropoxy)phenyl]methyl N-[(3R,4S)-3-fluoro-1-methylpiperidin-4-yl]-N-[(4-fluorophenyl)methyl]carbamate (6a) and [4-(2-methylpropoxy)phenyl]methyl N-[(3S,4R)-3-fluoro-1-methylpiperidin-4-yl]-N-[(4-fluorophenyl)methyl]carbamate (6b)] | – | pKi: 9.60 |
| Cc1ccc(CN(C(=O)OCc2ccc(OC(C)C)cc2)C2CCN(C)CC2)c(F)c1 [Compound 68, [4-(propan-2-yloxy)phenyl]methyl N-[(2-fluoro-4-methylphenyl)-methyl]-N-(1-methylpiperidin-4-yl)carbamate] | 7.3 | – |
| CC(C)Oc1ccc(COC(=O)N(Cc2ccc(F)cc2)[C@H]2CCNC[C@H]2F)cc1 (racemic) [3a/3b, [4-(propan-2-yloxy)phenyl]methyl N-[(4-fluorophenyl)methyl]-N-[(3R,4S)-3-fluoropiperidin-4-yl]carbamate (3a) and [4-(propan-2-yloxy)phenyl]methyl N-[(4-fluorophenyl)methyl]-N-[(3S,4R)-3-fluoropiperidin-4-yl]carbamate (3b)] | – | pKi: 10.00 |
| CN1CCC(N(Cc2ccc(F)cc2F)C(=O)OCc2ccc(OC(CF)CF)cc2)CC1.O=C(O)C(F)(F)F [Compound 28, 4-((1,3-difluoropropan-2-yl)oxy)benzyl (2,4-difluorobenzyl)(1-methylpiperidin-4-yl)carbamate; trifluoroacetic acid] | – | 5-HT2a pKi: 10.1 |
| CC(C)Oc1ccc(COC(=O)N(Cc2ccc(F)cc2F)C2CCN(C3COC3)CC2)cc1 [Compound 46, [4-(propan-2-yloxy)phenyl]methyl N-[(2,4-difluorophenyl)methyl]-N-[1-(oxetan-3-yl)piperidin-4-yl]carbamate] | 7.6 | – |
| COc1cc(F)c(CN(C(=O)Cc2ccc(OCC(C)C)cc2)C2CCN(C)CC2)c(F)c1.O=C(O)C(F)(F)F [Compound 33, N-[(2,6-difluoro-4-methoxyphenyl)methyl]-N-(1-methylpiperidin-4-yl)-2-[4-(2-methylpropoxy)phenyl]acetamide; trifluoroacetic acid] | – | 5-HT2a pKi: 7.5 |
| CC(C)Oc1ccc(COC(=O)N(Cc2ccc(Cl)cc2)C2CCN(C)CC2)cc1 [Compound 1, [4-(propan-2-yloxy)phenyl]methyl N-[(4-chlorophenyl)methyl]-N-(1-methylpiperidin-4-yl)carbamate] | 9.7 | – |
| CC(C)COc1ccc(COC(=O)N(Cc2ccc(F)cc2O)C2CCN(C)CC2)cc1 [Compound 82, [4-(2-methylpropoxy)phenyl]methyl N-[(4-fluoro-2-hydroxyphenyl)methyl]-N-(1-methylpiperidin-4-yl)carbamate] | 7.8 | – |

| SMILES | 5-HT2a pKi [1] | further results |
| --- | --- | --- |
| CCOc1ccc(CC(=O)N(Cc2ccc(F)cc2F)C2CCN(C)CC2)cc1.O=C(O)C(F)(F)F [Compound 23, N-(2,4-difluorobenzyl)-2-(4-ethoxyphenyl)-N-(1-methylpiperidin-4-yl)acetamide; trifluoroacetic acid] | – | 5-HT2a pKi: 7.8 |
| CC(C)COc1ccc(COC(=O)N(Cc2ccc(F)cc2)C2CCN(C)CC2)cc1 [Compound 2, [4-(2-methylpropoxy)phenyl]methyl N-[(4-fluorophenyl)methyl]-N-(1-methylpiperidin-4-yl)carbamate] | 9.9 | – |
| CC(C)COc1ccc(CC(=O)N(Cc2ccc(F)cc2)C2CCN(C)CC2)c(F)c1.O=C(O)C(F)(F)F [Compound 20, 2-[2-fluoro-4-(2-methylpropoxy)phenyl]-N-[(4-fluorophenyl)methyl]-N-(1-methylpiperidin-4-yl)acetamide; trifluoroacetic acid] | 8.2 | – |
| CC(C)COc1ccc(COC(=O)N(Cc2ccc(F)cc2F)C2CCN(C)CC2)cc1 [Compound 14, [4-(2-methylpropoxy)phenyl]methyl N-[(2,4-difluorophenyl)methyl]-N-(1-methylpiperidin-4-yl)carbamate] | 7.6 | – |
| COc1cc(CN(C(=O)OCc2ccc(OC(C)C)cc2)C2CCN(C)CC2)ccc1Cl.O=C(O)C(F)(F)F [Compound 75] | 6.8 | – |
| CC(C)Oc1ccc(C(OC(=O)N(Cc2ccc(F)cc2)C2CCN(C)CC2)C(F)(F)F)cc1 (centres unmarked) [Compound 17, 2,2,2-trifluoro-1-[4-(propan-2-yloxy)phenyl]ethyl N-[(4-fluorophenyl)methyl]-N-(1-methylpiperidin-4-yl)carbamate] | 7.5 | – |
| CC(C)Oc1ccc(COC(=O)N(Cc2cc(F)c(F)cc2F)C2CCN(C)CC2)cc1 [Compound 80] | 7.8 | – |
| CC(C)COc1ccc(CC(=O)N(Cc2ccc(Cl)cc2Cl)C2CCN(C)CC2)cc1.O=C(O)C(F)(F)F [Compound 59, N-[(2,4-dichlorophenyl)methyl]-N-(1-methylpiperidin-4-yl)-2-[4-(2-methylpropoxy)phenyl]acetamide; trifluoroacetic acid] | 6.6 | – |
| CC(C)Oc1ccc(COC(=O)N(Cc2ccc(Cl)cc2F)C2CCN(C)CC2)cc1 [Compound 38, [4-(propan-2-yloxy)phenyl]methyl N-[(4-chloro-2-fluorophenyl)-methyl]-N-(1-methylpiperidin-4-yl)carbamate] | 9.3 | – |
| CN1CCC(N(Cc2ccc(F)cc2F)C(=O)OCc2ccc(C(C)(F)F)cc2)CC1.O=C(O)C(F)(F)F [Compound 73] | – | 5-HT2a pKi: 9.4 |
| CC(C)COc1ccc(CC(=O)N(Cc2ccc(F)cc2Cl)C2CCN(C)CC2)cc1.O=C(O)C(F)(F)F [Compound 61, N-[(2-chloro-4-fluorophenyl)methyl]-N-(1-methylpiperidin-4-yl)-2-[4-(2-methylpropoxy)phenyl]acetamide; trifluoroacetic acid] | 6.7 | – |
| CN1CCC(N(Cc2ccc(F)cc2F)C(=O)OCc2ccc(OCCF)cc2)CC1 [Compound 39, [4-(2-fluoroethoxy)phenyl]methyl N-[(2,4-difluorophenyl)methyl]-N-(1-methylpiperidin-4-yl)carbamate] | 9.8 | – |
| Cc1c(F)ccc(CN(C(=O)OCc2ccc(OC(C)C)cc2)C2CCN(C)CC2)c1F [Compound 67, [4-(propan-2-yloxy)phenyl]methyl N-[(2,4-difluoro-3-methylphenyl)methyl]-N-(1-methylpiperidin-4-yl)carbamate] | 10.0 | – |
| CC(C)Oc1ccc(COC(=O)N(Cc2ccc(F)cc2F)C2CCNCC2)cc1.O=C(O)C(F)(F)F [Compound 11, [4-(propan-2-yloxy)phenyl]methyl N-[(2,4-difluorophenyl)methyl]-N-(piperidin-4-yl)carbamate] | – | 5-HT2a pKi: 9.6 |
| CC(C)Oc1ccc(COC(=O)N(Cc2ccc(C(F)(F)F)cc2Cl)C2CCN(C)CC2)cc1.O=C(O)C(F)(F)F [Compound 78] | – | 5-HT2a pKi: 7.6 |
| CC(C)Oc1ccc(COC(=O)N(Cc2ccc(F)cc2F)C2CCN(C3CC3)CC2)cc1 [Compound 45, [4-(propan-2-yloxy)phenyl]methyl N-(1-cyclopropylpiperidin-4-yl)-N-[(2,4-difluorophenyl)methyl]carbamate] | 8.6 | – |
